Drawing on PubChem BioAssay (NCI), this text covers TGI for 22 compounds.

Structures are written as SMILES.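 The compound was tested at five concentrations on cells cultured in 96-well plates, with a 48-hour exposure period. TGI is the concentration that stops growth completely.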

Common to all, as to experiment: inhibition of tumour cell growth, NCI panel, 48 h
Test [1] deals with MDA-N.
For test [2], the system named is COLO 205 colon.
The subject of test [3] is MDA-MB-435.
Test [4] has as its system HCT-15 colon.
Test [5] has as its system A549 NSCLC.
For test [6], the system named is UO-31 renal.
Test [7] concerns HT29 colon.
Test [8] deals with U251 CNS.
Test [9] has as its system HOP-92 NSCLC.
Test [10] has as its system OVCAR-5 ovarian.

For the compound `C#CCNC(CSSCC(N)C(=O)O)C(=O)O` (stereo not given), the TGI in test [1], in [2], in [3], in test [4], in test [5] and in test [6] was over 100 µM in each case. For the same compound, the TGI in [7], in test [8], in test [9] and in test [10] was over 100 µM each time.
For the compound `COc1ccc(N2CC(=O)N(C(=O)COc3ccc(OCC(=O)N4C(=O)CN(c5ccc(OC)cc5)C4=S)cc3)C2=S)cc1`, the TGI in [1], in [2], in test [3], in [4], in [5] and in test [6] was over 100 µM each time. Also, the TGI in [7], in test [8], in test [9] and in [10] was over 100 µM each time.
As to `COc1cc(C2c3c(ccc4ccccc34)C(=O)C3CCC(=O)N32)cc(OC)c1OC` (stereo not given), the TGI in [1], in [2], in test [3], in [4], in test [5] and in test [6] was over 50 µM each time. The TGI in test [7], in [8], in [9] and in test [10] was over 50 µM in each case.
For the compound `O=C(O)CC(Cc1ccccc1Cl)C(=O)O` (stereo not given), the TGI in test [1], in test [2], in test [3], in test [4], in test [5] and in test [6] was over 100 µM in each case. The TGI in test [7], in [8], in test [9] and in test [10] was over 100 µM throughout.
With `CC1=NNC(=O)C1C1C(=O)NN=C(c2c[nH]c3ccccc23)C1Br` (stereo not given), the TGI in test [1], in test [2], in [3], in test [4], in [5] and in test [6] was over 100 µM each time. The TGI in [7], in test [8], in [9] and in test [10] was over 100 µM in each case.
In the case of `CSc1ncc2c(n1)C(C#N)C1Sc3ccccc3N1C2=O` (stereo not given), the TGI in [1], in [2], in [3], in [4], in test [5] and in test [6] was over 100 µM in each case. Also, the TGI in [7], in [8], in [9] and in test [10] was over 100 µM each time.
On to `CC(=O)NC1C(OCc2ccccc2)OC(CO)C(O)C1OCC(=O)N1CCCC1C(=O)N[C@@H](CCC(=O)NCCCCNc1c2ccccc2nc2cccc([N+](=O)[O-])c12)C(N)=O` (stereo not given in full), for which the TGI in [1] is 30.6 µM; in test [2], 46.4 µM; in [3], 54.5 µM; in test [4], over 100 µM; in test [5] it was 37.8 µM; in [6] it was over 100 µM. Besides, the TGI in [7] amounted to 50.2 µM; in [8] it was 48.9 µM; in [9] it was 28.7 µM; in [10], 88.5 µM.
As for `N#Cc1c(-c2ccc(Cl)cc2)c2c(nn3c4ccc5ccccc5c4nnc23)[nH]c1=O`, the TGI came to 5.78 µM in test [1]; 10.6 µM in [2]; 8.69 µM in test [3]; 6.35 µM in test [4]; 20.8 µM in test [5]; 12.6 µM in test [6]. Further, the TGI is over 33.5 µM in test [7], 5.38 µM in test [8], 6.72 µM in [9] and 23.4 µM in [10].
Regarding `C[C@@H]1OC(=O)C[C@H]2CC(=O)N(CCC3CN(C(=O)OCc4ccccc4)c4ccccc43)C[C@@H]21` (stereo not given in full), the TGI in test [1], in test [2], in test [3], in test [4], in [5] and in test [6] was over 100 µM in each case. Besides, the TGI in test [7], in test [8], in [9] and in test [10] was over 100 µM in each case.
Turning to `OC1[C@@H]2[C@@H](O)CCCN2C[C@@H](O)[C@H]1O` (stereo not given in full), the TGI in test [1], in test [2], in [3], in [4], in [5] and in test [6] was over 100 µM throughout. Besides, the TGI in test [7], in test [8], in test [9] and in test [10] was over 100 µM in each case.
With `Cc1ccc(Nc2nc3[nH]ccc3c(=O)[nH]2)cc1`, the TGI in test [1], in [2], in test [3], in [4], in [5] and in test [6] was over 100 µM throughout. Further, the TGI in test [7], in test [8], in test [9] and in test [10] was over 100 µM each time.
For `C=CCC1(C#N)C(=S)NC2=C(C(=O)CC(C)(C)C2)C1c1ccccc1` (stereo not given), the TGI in test [1], in test [2], in test [3], in [4], in test [5] and in test [6] was over 100 µM throughout. In addition, the TGI in test [7] was over 100 µM; in test [8], over 100 µM; in [9], 90.2 µM; in test [10], over 100 µM.
Regarding `CC(N=NNc1ccc(-c2nc3ccccc3[nH]2)cc1)C(=O)O` (stereo not given), the TGI in [1] was over 100 µM; in test [2], over 100 µM; in [3] it was over 100 µM; in test [4], 61.6 µM; in test [5], over 100 µM; in [6], over 100 µM. Also, the TGI is over 100 µM in test [7], 60.8 µM in test [8], over 100 µM in test [9] and over 100 µM in test [10].
Take `CCOC(=O)c1c(C)n(Cc2ccc(Cl)cc2Cl)c2c1cc(O)c1[nH]c3c(c12)CCCC3`: the TGI in test [1] is 45.6 µM; in test [2] it was over 100 µM; in test [3], 55.5 µM; in test [4], over 100 µM; in [5], over 100 µM; in test [6], 51.3 µM. The TGI in test [7] is 68.2 µM; in [8], over 100 µM; in test [9], 43 µM; in [10] it was over 100 µM.
For `C[C@H](c1ccccc1)N1C(=O)[C@@H](O)[C@H]1[C@H](CO)OCc1ccccc1`, the TGI in test [1], in [2], in test [3], in [4], in [5] and in test [6] was over 100 µM in each case. The TGI in test [7], in test [8], in test [9] and in [10] was over 100 µM throughout.
For the compound `O=c1[nH]cc(NCCCl)c(=O)[nH]1`, the TGI in test [1], in test [2], in test [3], in [4], in test [5] and in test [6] was over 100 µM throughout. Further, the TGI in test [7], in [8], in test [9] and in test [10] was over 100 µM each time.
Turning to `O=C1c2cccc([N+](=O)[O-])c2C(=O)N1Cc1ccccc1`, the TGI in test [1], in test [2], in test [3], in [4], in [5] and in test [6] was over 100 µM throughout. For the same compound, the TGI in test [7], in [8], in [9] and in test [10] was over 100 µM each time.
`CN(C)CC(O)c1ccc(Cl)c2ccccc12` (stereo not given): the TGI in test [1] was over 63.8 µM; in [2] it was 49.2 µM; in test [3], 61.2 µM; in [4], over 100 µM; in [5], over 100 µM; in [6], over 62.2 µM. Besides, the TGI in test [7] is over 100 µM; in test [8] it was over 90.6 µM; in test [9], over 68.2 µM; in [10], over 100 µM.
In the case of `O=C(O)CN(CC(=O)O)C1CCCCC1N1CC(=O)OC(=O)C1` (stereo not given), the TGI in test [1], in test [2], in test [3], in test [4], in test [5] and in test [6] was over 100 µM throughout. Moreover, the TGI in test [7], in test [8], in test [9] and in test [10] was over 100 µM in each case.
For `CN(C)CCNc1ccc2c(=O)n(CCN(C)C)c(=O)n3c4ccc(O)cc4c(=O)c1c23`, the TGI in test [1] came out at 0.26 µM; in [2], 0.099 µM; in test [3], 0.259 µM; in test [4], 4.35 µM; in [5] it was 1.47 µM; in test [6] it was 0.282 µM. Also, the TGI in test [7] was 0.229 µM; in test [8], 0.439 µM; in [9], 0.0941 µM; in test [10] it was 2.34 µM.
As for `Cc1ccc2nc(SCC(=O)N=Nc3c(O)[nH]c4ccccc34)n(-c3ccccc3)c(=O)c2c1`, the TGI in test [1] is 37.6 µM; in test [2], 33 µM; in [3], 33.7 µM; in test [4], 40.5 µM; in test [5] it was 28.6 µM; in test [6], 12.9 µM. For the same compound, the TGI in test [7] stood at 33.5 µM; in test [8] it was 24.8 µM; in test [9], 29.6 µM; in test [10], 29.3 µM.
In the case of `CC(=O)O[C@H]1CC(C)(C)C(=C=C/C(C)=C/C=C/C=C/C=C(C)/C=C2C=C(/C=C/[C@@]34O[C@]3(C)C[C@@H](O)CC4(C)C)C(=O)O/2)[C@](C)(O)C1`, the TGI in [1] is 49.5 µM; in test [2], over 100 µM; in [3], over 100 µM; in test [4], 35 µM; in test [5], 50.2 µM; in test [6], 30.7 µM. In addition, the TGI was over 100 µM in [7], over 100 µM in test [8], over 100 µM in [9] and 68.7 µM in test [10].
